From patent US20260250316A1, “CRYSTALLINE FORMS OF A MACROCYCLIC PEPTIDE ANTIBIOTIC” (Hoffmann-La Roche Inc., priority 2022, published 2026) come the findings set out here.

One data set can be described thus: physchem. Conditions: water, approximately 1 g equilibrated in 8.5 mL of water at 20° C. for 2 days, centrifuged, uPLC.

By Solubility is commonly meant how much of the substance goes into solution per volume. A low value points to a poorly soluble substance. One may read the solubility as how much of the substance goes into solution per volume. Lower therefore signals a poorly soluble substance.

Each structure is given as a SMILES string.

Method for physchem: Approximately 1 g of substance was equilibrated in 8.5 mL of water at 20° C. for 2 days. 1 mL of suspension was centrifuged. The filtrate was analyzed by uPLC.

As to `CN1C(=O)[C@H](CCCCN)NC(=O)[C@H](CCCN)NCc2cccnc2Sc2cccc(-c3ccc(C(=O)O)cc3)c2CNC(=O)[C@@H]1Cc1c[nH]c2ccccc12` [free base, 4-[(11S,14S,17S)-14-(4-Aminobutyl)-11-(3-aminopropyl)-17-(1H-indol-3-ylmethyl)-16-methyl-12,15,18-trioxo-2-thia-4,10,13,16,19-pentazatricyclo[19.4.0.03,8]pentacosa-1(25),3(8),4,6,21,23-hexaen-22-yl]benzoic acid], for the setting “water”, the “Solubility in water (in words)” value was “hardly soluble in water”.

Regarding `CN1C(=O)[C@H](CCCCN)NC(=O)[C@H](CCCN)NCc2cccnc2Sc2cccc(-c3ccc(C(=O)O)cc3)c2CNC(=O)[C@@H]1Cc1c[nH]c2ccccc12.Cl` [Amorphous HCl salt, 4-[(11S,14S,17S)-14-(4-Aminobutyl)-11-(3-aminopropyl)-17-(1H-indol-3-ylmethyl)-16-methyl-12,15,18-trioxo-2-thia-4,10,13,16,19-pentazatricyclo[19.4.0.03,8]pentacosa-1(25),3(8),4,6,21,23-hexaen-22-yl]benzoic acid, mono hydrochloric acid salt], the Solubility (approximately 1 g equilibrated in 8.5 mL of water at 20° C. for 2 days, centrifuged, uPLC) amounted to 177.6 mg/mL. For the molecule `CN1C(=O)[C@H](CCCCN)NC(=O)[C@H](CCCN)NCc2cccnc2Sc2cccc(-c3ccc(C(=O)O)cc3)c2CNC(=O)[C@@H]1Cc1c[nH]c2ccccc12` [Form A family free zwitterion], the solubility at 2 days in “physchem” is under 1 mg/mL.

As for `CN1C(=O)[C@H](CCCCN)NC(=O)[C@H](CCCN)NCc2cccnc2Sc2cccc(-c3ccc(C(=O)O)cc3)c2CNC(=O)[C@@H]1Cc1c[nH]c2ccccc12.Cl` [HCl salt, 4-[(11S,14S,17S)-14-(4-Aminobutyl)-11-(3-aminopropyl)-17-(1H-indol-3-ylmethyl)-16-methyl-12,15,18-trioxo-2-thia-4,10,13,16,19-pentazatricyclo[19.4.0.03,8]pentacosa-1(25),3(8),4,6,21,23-hexaen-22-yl]benzoic acid], for the setting “especially in aqueous media”, the “Solubility compared to the free base (in words)” value is given as “dramatically increased solubility compared to the free base”. Consider `CN1C(=O)[C@H](CCCCN)NC(=O)[C@H](CCCN)NCc2cccnc2Sc2cccc(-c3ccc(C(=O)O)cc3)c2CNC(=O)[C@@H]1Cc1c[nH]c2ccccc12.Cl` [Form A family HCl salt], for which the solubility at 2 days in the data set “physchem” is 124 mg/mL.
